SMILES strings stand for the structures. Bounds are passed on as bounds.

Consider twelve molecules from patent US9884063B2, “Amido-substituted azole compounds” (Bayer Pharma Aktiengesellschaft, priority 2014, dated 2018).

The test has as its target T1, TNKS1 (Homo sapiens, UniProt O95271).
T1 sequence (O95271 1-1327): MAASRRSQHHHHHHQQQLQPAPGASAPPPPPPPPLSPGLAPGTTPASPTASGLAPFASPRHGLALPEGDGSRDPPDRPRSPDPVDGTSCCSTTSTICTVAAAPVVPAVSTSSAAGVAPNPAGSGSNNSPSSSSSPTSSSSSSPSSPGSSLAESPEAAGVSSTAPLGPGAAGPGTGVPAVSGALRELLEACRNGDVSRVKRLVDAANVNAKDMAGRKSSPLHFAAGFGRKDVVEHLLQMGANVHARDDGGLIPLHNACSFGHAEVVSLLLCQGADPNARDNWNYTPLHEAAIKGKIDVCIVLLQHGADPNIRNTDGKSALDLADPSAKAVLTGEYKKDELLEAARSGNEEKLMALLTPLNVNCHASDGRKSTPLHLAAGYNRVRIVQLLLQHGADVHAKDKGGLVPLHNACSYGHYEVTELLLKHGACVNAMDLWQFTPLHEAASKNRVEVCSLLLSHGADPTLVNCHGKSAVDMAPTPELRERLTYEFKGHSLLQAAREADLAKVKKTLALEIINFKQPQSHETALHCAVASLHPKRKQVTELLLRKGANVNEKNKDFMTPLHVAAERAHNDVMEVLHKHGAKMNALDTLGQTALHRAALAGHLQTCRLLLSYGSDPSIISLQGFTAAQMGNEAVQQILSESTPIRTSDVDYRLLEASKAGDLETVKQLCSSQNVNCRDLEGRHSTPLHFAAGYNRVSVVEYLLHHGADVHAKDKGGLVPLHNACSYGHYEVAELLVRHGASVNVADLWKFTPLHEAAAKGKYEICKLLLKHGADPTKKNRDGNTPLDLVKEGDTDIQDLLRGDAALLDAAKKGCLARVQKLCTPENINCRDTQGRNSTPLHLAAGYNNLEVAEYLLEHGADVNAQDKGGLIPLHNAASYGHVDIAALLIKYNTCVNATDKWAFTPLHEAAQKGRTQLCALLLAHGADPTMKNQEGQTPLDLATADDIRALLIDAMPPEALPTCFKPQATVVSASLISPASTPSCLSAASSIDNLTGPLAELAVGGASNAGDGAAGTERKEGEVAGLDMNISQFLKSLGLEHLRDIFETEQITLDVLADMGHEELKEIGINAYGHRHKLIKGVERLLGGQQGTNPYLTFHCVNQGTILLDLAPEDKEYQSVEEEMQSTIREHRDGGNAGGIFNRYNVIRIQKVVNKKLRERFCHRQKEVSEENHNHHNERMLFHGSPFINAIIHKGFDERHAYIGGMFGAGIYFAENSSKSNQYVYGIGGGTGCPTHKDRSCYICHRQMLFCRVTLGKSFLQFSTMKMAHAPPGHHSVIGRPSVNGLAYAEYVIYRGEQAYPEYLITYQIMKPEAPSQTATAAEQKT
The experiment in a line: Modified TNKS1 Assay 3 (BPS kit #80573, biotin-NAD+, 96 well). The note with it: human TNKS1, BPS kit #80573, 96 well. Type of test: biochemical. The essentials: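 Chemiluminescent assay of TNKS1-catalysed ribosylation of a protein substrate with biotin-labelled NAD+, detected via streptavidin-HRP; run per kit protocol. Inhibition lowers the signal, and IC50 is the compound concentration halving the normalised readout.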
In the case of `CC(CN1CCOCC1)NC(=O)c1[nH]cnc1C(=O)Nc1ccc(NC(=O)c2ccc(F)cc2Cl)cc1` (single isomer, unassigned; enantiomer 2) [Example 270, N^4-{4-[(2-chloro-4-fluorobenzoyl)amino]phenyl}-N^5-[1-(morpholin-4-yl)propan-2-yl]-1H-imidazole-4,5-dicarboxamide (enantiomer 2)], the IC50 was 7 nM.

`CN(C)CCNC(=O)c1nc[nH]c1C(=O)Nc1ccc(NC(=O)c2ccc(F)cc2Cl)cc1` [Example 22, N^4-{4-[(2-chloro-4-fluorobenzoyl)amino]phenyl}-N^5-[2-(dimethylamino)ethyl]-1H-imidazole-4,5-dicarboxamide] showed an IC50 of 30 nM.

For `O=C(Nc1ccc(NC(=O)c2[nH]cnc2C(=O)NCCN2CCCCC2)cc1)c1ccc(F)cc1Cl` [Example 32, N^4-{4-[(2-chloro-4-fluorobenzoyl)amino]phenyl}-N^5-[2-(piperidin-1-yl)ethyl]-1H-imidazole-4,5-dicarboxamide], the IC50 was 8 nM.

The molecule `O=C(Nc1ccc(NC(=O)c2[nH]cnc2C(=O)NC2CC2)cc1)c1cc(F)c(F)cc1Cl` [Example 51, N^5-{4-[(2-chloro-4,5-difluorobenzoyl)amino]phenyl}-N^4-cyclopropyl-1H-imidazole-4,5-dicarboxamide] yielded an IC50 of 230 nM.

`O=C(Nc1ccc(NC(=O)c2[nH]cnc2C(=O)N2CC3(COC3)C2)cc1)c1cc(F)c(F)cc1Cl` [Example 52, N-{4-[(2-chloro-4,5-difluorobenzoyl)amino]phenyl}-4-(2-oxa-6-azaspiro[3.3]hept-6-ylcarbonyl)-1H-imidazole-5-carboxamide] registered an IC50 of more than 500 nM.

`CS(=O)(=O)c1ccc(C(=O)Nc2ccc(NC(=O)c3[nH]cnc3C(=O)NCCN3CCCCC3)cc2)c(Cl)c1` [Example 53, N^5-(4-{[2-chloro-4-(methylsulfonyl)benzoyl]amino}phenyl)-N^4-[2-(piperidin-1-yl)ethyl]-1H-imidazole-4,5-dicarboxamide] gave an IC50 of 2 nM.

`CNC(=O)c1nc[nH]c1C(=O)Nc1ccc(NC(=O)c2ccc(S(C)(=O)=O)cc2Cl)cc1` [Example 55, N^5-(4-{[2-chloro-4-(methylsulfonyl)benzoyl]amino}phenyl)-N^4-methyl-1H-imidazole-4,5-dicarboxamide] yielded an IC50 of 30 nM.

With `CNC(=O)c1nc[nH]c1C(=O)Nc1ccc(NC(=O)c2ccc(F)cc2Br)cc1` [Example 56, N^5-{4-[(2-bromo-4-fluorobenzoyl)amino]phenyl}-N^4-methyl-1H-imidazole-4,5-dicarboxamide], 90 nM corresponded to half-maximal inhibition (IC50). This IC50 lies about 3-fold higher than the previous one.

`CNC(=O)c1nc[nH]c1C(=O)Nc1ccc(NC(=O)c2ccc(F)cc2I)cc1` [Example 61, N^5-{4-[(4-fluoro-2-iodobenzoyl)amino]phenyl}-N^4-methyl-1H-imidazole-4,5-dicarboxamide] displayed an IC50 of 140 nM. Against the preceding molecule, the IC50 is about 1.6-fold higher.

Regarding `Cc1nc(C(=O)Nc2ccc(NC(=O)c3ccc(F)cc3Cl)cc2)c(C(=O)NCCN2CCCCC2)[nH]1` [Example 67, N^4-{4-[(2-chloro-4-fluorobenzoyl)amino]phenyl}-2-methyl-N^5-[2-(piperidin-1-yl)ethyl]-1H-imidazole-4,5-dicarboxamide], it took 5 nM to reach half-maximal inhibition (IC50).

Molecule `C[C@@H]1CCCCN1CCNC(=O)c1[nH]cnc1C(=O)Nc1ccc(NC(=O)c2ccc(F)cc2Cl)cc1` [Example 267, N^4-{4-[(2-chloro-4-fluorobenzoyl)amino]phenyl}-N^5-{2-[(2R)-2-methylpiperidin-1-yl]ethyl}-1H-imidazole-4,5-dicarboxamide] gave a half-maximal inhibitory concentration (IC50) of 20 nM.

In turn, `C[C@@H]1CCCN(CCNC(=O)c2[nH]cnc2C(=O)Nc2ccc(NC(=O)c3ccc(F)cc3Cl)cc2)C1` [Example 278, N^4-{4-[(2-chloro-4-fluorobenzoyl)amino]phenyl}-N^5-{2-[(3R)-3-methylpiperidin-1-yl]ethyl}-1H-imidazole-4,5-dicarboxamide] gave an IC50 of less than 0.5 nM.
